These results are taken from ChEMBL document CHEMBL5038639, “Designed Peptide Inhibitors of STEP Phosphatase-GluA2 AMPA Receptor Interaction Enhance the Cognitive Performance in Rats” (J Med Chem, 2022).

Experiment [1] has as its system Rattus norvegicus. Description: Cognitive enhancing effect in Wistar rat model of scopolamine-induced working memory impairment assessed as reduction in number of working memory errors at 5 mg/kg by Radial arm maze task. Format: functional, organism-based.
Experiment [2] has as its system Rattus norvegicus. Description: Cognitive enhancing effect in Wistar rat model of scopolamine-induced short term memory impairment assessed as increase in spontaneous alteration at 5 mg/kg measured by Y-maze method. Format: functional, organism-based.
The target in experiment [3] is T1, Tyrosine-protein phosphatase non-receptor type 2 (Homo sapiens) (UniProt P17706).
T1 sequence (whole entry): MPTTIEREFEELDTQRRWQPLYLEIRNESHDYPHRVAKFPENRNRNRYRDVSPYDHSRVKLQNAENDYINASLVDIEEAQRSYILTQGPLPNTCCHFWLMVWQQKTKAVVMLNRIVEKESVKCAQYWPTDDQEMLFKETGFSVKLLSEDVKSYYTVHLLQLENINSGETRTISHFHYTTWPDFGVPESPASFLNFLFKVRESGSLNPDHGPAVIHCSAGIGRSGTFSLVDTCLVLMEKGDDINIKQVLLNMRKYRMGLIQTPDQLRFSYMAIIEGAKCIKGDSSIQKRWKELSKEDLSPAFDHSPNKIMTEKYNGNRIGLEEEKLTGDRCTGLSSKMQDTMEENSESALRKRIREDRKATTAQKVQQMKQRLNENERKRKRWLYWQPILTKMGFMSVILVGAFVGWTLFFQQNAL
Kind of experiment: Inhibition of TC-PTP (unknown origin) at 1 mM using pNPP as substrate.

The species entered for experiment [4] is Rattus norvegicus. Description: Cognitive enhancing effect in Wistar rat model of scopolamine-induced reference memory impairment assessed as reduction in number of reference memory error at 15 uM by Radial arm maze task. Format: functional, organism-based.
The species entered for experiment [5] is Rattus norvegicus. Kind of experiment: Anxiolytic activity in scopolamine-induced Wistar rat assessed as increase in number of entries in open arm measured at 15 uM for 5 min by elevated plus maze test. Type of experiment: functional, organism-based.
The subject of experiment [6] is HEK293. Kind of experiment: Inhibition of GluA2-STEP3 (unknown origin) protein-protein interaction expressed in HEK293 cells assessed as reduction in GluA2 dephosphorylation at pY876 residue at 0.1 mM incubated for 30 min by western blotting analysis. Format: cell-based. Conditions: Homo sapiens. (Immunoblotting shows a protein as a band on a membrane.)
Experiment [7] concerns the target T2, Tyrosine-protein phosphatase non-receptor type 1 (Homo sapiens) (UniProt P18031).
T2 sequence (whole entry): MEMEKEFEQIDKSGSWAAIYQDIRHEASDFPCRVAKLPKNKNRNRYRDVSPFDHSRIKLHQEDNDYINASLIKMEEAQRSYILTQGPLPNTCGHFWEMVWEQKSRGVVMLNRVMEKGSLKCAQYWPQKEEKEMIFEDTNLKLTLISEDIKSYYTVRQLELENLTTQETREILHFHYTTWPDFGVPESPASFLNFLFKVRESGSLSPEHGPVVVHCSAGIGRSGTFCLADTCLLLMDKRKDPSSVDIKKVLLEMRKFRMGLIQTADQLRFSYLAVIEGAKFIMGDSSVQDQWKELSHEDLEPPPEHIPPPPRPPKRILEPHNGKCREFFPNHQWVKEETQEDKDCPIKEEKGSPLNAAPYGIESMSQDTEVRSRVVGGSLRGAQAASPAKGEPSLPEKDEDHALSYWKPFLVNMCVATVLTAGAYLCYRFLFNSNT
Description: Inhibition of […] (unknown origin) at 1 mM using pNPP as substrate.

For experiment [8], the species on record is Rattus norvegicus. Kind of experiment: Cognitive enhancing effect in Wistar rat model of scopolamine-induced working memory impairment assessed as reduction in number of working memory errors at 15 uM by Radial arm maze task. Format: functional, organism-based.
The species entered for the next experiment is Homo sapiens. Kind of experiment: Inhibition of GluA2-STEP32 C/S mutant (unknown origin) protein-protein interaction at 0.1 to 1 mM by Western blotting based pulldown assay. Conditions: dose 0.1-1 mM.
The species named for experiment [9] is Rattus norvegicus. Kind of experiment: Antidepressant activity in Wistar rat model of scopolamine-induced depressive like behavior assessed as increased swimming time at 15 uM measured after 24 hrs by forced swimming test. Type of experiment: functional, organism-based.
For experiment [10], the species on record is Rattus norvegicus. Kind of experiment: Anxiolytic activity in scopolamine-induced Wistar rat assessed as increase in time spent in open arm measured at 15 uM for 5 min by elevated plus maze test. Type of experiment: functional, organism-based.
The species named for experiment [11] is Rattus norvegicus. Kind of experiment: Antidepressant activity in Wistar rat model of scopolamine-induced depressive like behavior assessed as decrease in immobility time at 15 uM measured after 24 hrs by forced swimming test. Type of experiment: functional, organism-based.
Experiment [12] is filed under the species Rattus norvegicus. Kind of experiment: Cognitive enhancing effect in Wistar rat model of scopolamine-induced short term memory impairment assessed as increase in spontaneous alteration at 15 uM measured by Y-maze method. Type of experiment: functional, organism-based.
For experiment [13], the system named is Hippocampus. Description: Effect on hippocampal population spike in Wistar rat assessed as increase in spike area and slope at 15 uM measured at 1 hr. Type of experiment: functional, tissue-based.
Experiment [14] has as its system Hippocampus. Description: Effect on hippocampal population spike in Wistar rat assessed as increase in amplitude at 15 uM measured after 3 hrs. Format: functional, tissue-based.
In experiment [15] the test system is Hippocampus. Description: Effect on hippocampal population spike in Wistar rat assessed as decrease in population spike area at 1.5 mM measured upto 3 hrs. Format: functional, tissue-based. Conditions: time hrs <=3.
The subject of experiment [16] is Hippocampus. Kind of experiment: Effect on hippocampal population spike in Wistar rat assessed as increase in spike area and slope at 15 uM measured after 2 hrs. Format: functional, tissue-based.
Experiment [17] concerns HEK293. Kind of experiment: Inhibition of GluA2-STEP3 (unknown origin) protein-protein interaction expressed in HEK293 cells assessed as reduction in GluA2 dephosphorylation at pY876 residue at 1 mM incubated for 30 min by western blotting analysis. Type of experiment: cell-based. Conditions: Homo sapiens.

Calls of active or inactive are those of the source. The rule behind the calls is not given here. Square brackets hold non-standard residues; d marks the D form. Peptide text beside a SMILES is read from it. pY = N[C@@H](Cc1ccc(OP(=O)(O)O)cc1)C(=O)O

For `COc1cc2c(cc1OC)C(=O)C(CC1CCN(Cc3ccccc3)CC1)C2` (centres undefined), the outcome with Rattus norvegicus [1] and with Rattus norvegicus [2] was Active.

For `CC(=O)N[C@@H](Cc1ccc(O)cc1)C(=O)NCC(=O)N[C@@H](CCCNC(=N)N)C(=O)N[C@@H](CCCCN)C(=O)N[C@@H](CCCCN)C(=O)N[C@@H](CCCNC(=N)N)C(=O)N[C@@H](CCCNC(=N)N)C(=O)N[C@@H](CCC(N)=O)C(=O)N[C@@H](CCCNC(=N)N)C(=O)N[C@@H](CCCNC(=N)N)C(=O)N[C@@H](CCCNC(=N)N)C(=O)N[C@@H](C)C(=O)N[C@H](C(=O)N[C@@H](Cc1ccc(O)cc1)C(=O)N[C@@H](CCCCN)C(=O)N[C@@H](CCC(=O)O)C(=O)NCC(=O)N[C@@H](Cc1ccc(O)cc1)C(=O)N[C@@H](CC(N)=O)C(=O)N[C@H](C(=O)N[C@@H](Cc1ccc(OP(=O)(O)O)cc1)C(=O)NCC(N)=O)C(C)C)[C@@H](C)O` (Ac-YGRKKRRQRRRATYKEGYNV[pY]G-NH2), the inhibition result (in experiment [3]; in the experiment with HEK293 [6]; in [7]; in the experiment filed under Homo sapiens) was “Active” in each case. The outcome in the experiment filed under Rattus norvegicus [4], in the experiment filed under Rattus norvegicus [5], in the experiment filed under Rattus norvegicus [8], in the experiment listed under Rattus norvegicus [9], in the experiment listed under Rattus norvegicus [10] and in the experiment filed under Rattus norvegicus [11] was Active. Also, the result in the experiment filed under Rattus norvegicus [12] was Active.

Consider `CC(=O)N[C@@H](Cc1ccc(O)cc1)C(=O)NCC(=O)N[C@@H](CCCNC(=N)N)C(=O)N[C@@H](CCCCN)C(=O)N[C@@H](CCCCN)C(=O)N[C@@H](CCCNC(=N)N)C(=O)N[C@@H](CCCNC(=N)N)C(=O)N[C@@H](CCC(N)=O)C(=O)N[C@@H](CCCNC(=N)N)C(=O)N[C@@H](CCCNC(=N)N)C(=O)N[C@@H](CCCNC(=N)N)C(=O)N[C@@H](CCC(=O)O)C(=O)NCC(=O)N[C@@H](Cc1ccc(O)cc1)C(=O)N[C@@H](CC(N)=O)C(=O)N[C@H](C(=O)N[C@@H](Cc1ccc(OP(=O)(O)O)cc1)C(N)=O)C(C)C` (Ac-YGRKKRRQRRREGYNV[pY]-NH2), for which the inhibition entry (in experiment [3]; in the experiment on HEK293 [6]; in [7]; in the experiment listed under Homo sapiens) was “Active” throughout. The result in the experiment filed under Rattus norvegicus [4], in the experiment listed under Rattus norvegicus [5], in the experiment listed under Rattus norvegicus [8], in the experiment listed under Rattus norvegicus [9], in the experiment filed under Rattus norvegicus [10] and in the experiment filed under Rattus norvegicus [11] was Active. Besides, in the experiment filed under Rattus norvegicus [12], the result was Active.

For `CC(=O)N[C@@H](Cc1ccc(O)cc1)C(=O)NCC(=O)N[C@@H](CCCNC(=N)N)C(=O)N[C@@H](CCCCN)C(=O)N[C@@H](CCCCN)C(=O)N[C@@H](CCCNC(=N)N)C(=O)N[C@@H](CCCNC(=N)N)C(=O)N[C@@H](CCC(N)=O)C(=O)N[C@@H](CCCNC(=N)N)C(=O)N[C@@H](CCCNC(=N)N)C(=O)N[C@@H](CCCNC(=N)N)C(=O)N[C@@H](CCC(=O)O)C(=O)NCC(=O)N[C@@H](Cc1ccc(O)cc1)C(=O)N[C@@H](CC(N)=O)C(=O)N[C@H](C(=O)N[C@@H](Cc1ccc(OP(=O)(O)O)cc1)C(=O)N[C@@H](CCC(=O)O)C(N)=O)C(C)C` (Ac-YGRKKRRQRRREGYNV[pY]E-NH2), the inhibition entry (in experiment [3]; in the experiment on HEK293 [6]; in experiment [7]; in the experiment listed under Homo sapiens; in the experiment with HEK293 [17]) was “Active” in each case. Further, the outcome in the experiment on Hippocampus [13], in the experiment listed under Rattus norvegicus [4], in the experiment listed under Rattus norvegicus [5], in the experiment filed under Rattus norvegicus [8], in the experiment on Hippocampus [14] and in the experiment filed under Rattus norvegicus [9] was Active. Besides, the result in the experiment with Hippocampus [15], in the experiment filed under Rattus norvegicus [10], in the experiment listed under Rattus norvegicus [11] and in the experiment listed under Rattus norvegicus [12] was Active. For the same molecule, the result in the experiment with Hippocampus [16] was inactive.

Take Ac-YGRKKRRQRRRATYKEGYNVYG-NH2: the inhibition entry in experiment [3] and in experiment [7] was “Active” throughout. In addition, the result in the experiment filed under Rattus norvegicus [4], in the experiment listed under Rattus norvegicus [5], in the experiment filed under Rattus norvegicus [8], in the experiment listed under Rattus norvegicus [9], in the experiment filed under Rattus norvegicus [10] and in the experiment filed under Rattus norvegicus [11] was Active. In the experiment listed under Rattus norvegicus [12], the result was Active.
